Measured values published in patent US20100063041A1, “NOVEL PHENYLPROPIONIC ACID DERIVATIVES AS PEROXISOME PROLIFERATOR-ACTIVATED GAMMA RECEPTOR MODULATORS, METHOD OF THE SAME, AND PHARMACEUTICAL COMPOSITION COMPRISING THE SAME” (priority 2007, published 2010).

Biological target: T1, PPAR-γ and Trap220 (Homo sapiens, UniProt P37231)
T1 construct: expressed in transfected cells; host or cells: CHO-K1 (CCL-61, ATCC)
T1 sequence (P37231 238-503 limits assumed): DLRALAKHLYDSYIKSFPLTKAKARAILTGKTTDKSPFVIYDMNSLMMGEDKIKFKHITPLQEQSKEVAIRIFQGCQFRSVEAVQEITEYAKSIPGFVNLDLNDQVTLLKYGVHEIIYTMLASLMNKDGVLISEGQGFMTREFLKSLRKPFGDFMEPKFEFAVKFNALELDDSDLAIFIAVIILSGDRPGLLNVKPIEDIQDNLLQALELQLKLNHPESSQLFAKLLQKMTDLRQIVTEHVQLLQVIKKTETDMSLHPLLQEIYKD
Test: binding capacity with Trap220 (mammalian two-hybrid assay) in CHO-K1 cells
Type: cell-based
Conditions: compared to the positive control drug rosiglitazone, FIG. 1
Protocol: Following induction of transient intracellular expression of PPAR-γ and Trap220, the binding capacity of the inventive compounds to a cofactor Trap220 after activation of PPAR-γ by the action of the inventive compounds was evaluated (mammalian two-hybrid assay).
For this purpose, a […] ovary cell line CHO-K1 (CCL-61, ATCC) was used as a test cell line. DNA constructs used in this assay were an expression vector pVP16 (Clontech) constructed to express a fusion of a human PPAR-γ2 ligand-binding domain with an activation domain of the […], and an expression vector pM (Clontech) constructed to express a fusion of human Trap220 with the GAL4 DNA-binding domain. Rosiglitazone maleate (Alcon Biosciences Private Limited), which is clinically used as a PPAR-γ agonist, was employed as a control drug.
The CHO-K1 cells were transiently transfected with two DNA constructs expressing the chimeric receptors and DNA constructs comprising 5 copies of the GAL4 DNA-binding domain and capable of inducing expression of firefly luciferase or Renilla luciferase using a Lipofectamine Plus reagent (Invitrogen, USA). Subsequent processes were carried out in the same manner as in the transactivation assay. The experimental results were expressed as an increase of the responsiveness vs. the negative control group with no addition of the drug.

- responsiveness (binding capacity with Trap220): reduced responsiveness
SMILES: CCO[C@@H](Cc1ccc(OCc2sc(-c3ccc(-c4cc(C)no4)cc3)cc2C)cc1)C(=O)[O-].[Na+] [Example 43, sodium (S)-2-ethoxy-3-(4-((3-methyl-5-(4-(3-methylisoxazol-5-yl)phenyl)thiophen-2-yl)methoxy)phenyl)propanoate]
